Experimental data published in publication PMC10229121, “An acetylation-mediated chromatin switch governs H3K4 methylation read-write capability” (eLife, 2023).

Test system: histone H3.1 modifications in HEK-293 cells
Test: Middle-down mass spectrometry of histone H3.1 from HEK-293 cells ± KDAC inhibition (H3K9 methylation, {K9ac, K14ac, K18ac} proteoforms, H3K4 methylation)
Format: cell-based
Settings: for 3ac including {K9ac, K14ac, K18ac} / 4ac including {K9ac, K14ac, K18ac} / 5ac including {K9ac, K14ac, K18ac}: HEK-293, H3.1 butyrate treated; for H3K9me0 / H3K9me1 / H3K9me2 / H3K9me3: HEK-293, butyrate treated
Experimental: Figure 3. […] (A) Occupancy of H3K4 methyl states (me0-1-2-3) within each H3 acetyl state (0ac to 5ac) in asynchronous MCF-7 cells. (B) Occupancy of H3K4 methyl states within each H3 acetyl state after butyrate treatment (60 min). Asterisks represent p-values <0.05. […] Each spectrum is an average of MS2 spectra of the indicated H3 acetyl states after 60 min of butyrate treatment. K4 occupancy stoichiometry is directly correlated with H3 acetylation state and the targeted MS approach provides excellent signal-to-noise for confident quantitation. […] See Methods for further information on data acquisition and analysis. All data were collected in biological triplicate with error bars representing SEM. Figure 3—figure supplement 1. H3 acetylation states with sodium butyrate treatment. (A - B) Each acetyl state of acid-extracted H3 from 0ac to 5ac is represented as a percent of total H3 before/after 60 min treatment of asynchronous MCF-7 cells with 5 mM sodium butyrate. (C) Occupancy of H3K4 methyl states (me0-1-2-3) within each H3 acetyl state (0ac to 5ac) in asynchronous HEK-293 cells. (D) Occupancy of H3K4 methyl states within each H3 acetyl state after butyrate treatment (120 min) in asynchronous HEK-293 cells. (E) Percentage of (K9ac, K14ac, K18ac) proteoforms within 3ac to 5ac acetyl states of H3.1 ± butyrate treatment in HEK-293 cells. N=3 and error bars are SEM for all data. [drawing 3]
MCF-7 breast cancer cells (ATCC HTB-22) were grown in MEM (Gibco) supplemented with 10% fetal bovine serum (VWR), 100 I.U. penicillin, 100 µg/mL streptomycin (Corning), 0.01 mg/mL human recombinant insulin (Gibco), and 5 µg/mL plasmocin (Invivogen) at 37 °C and 5% CO2. HEK-293 (ATCC CRL-1573) was grown in DMEM (Gibco) supplemented with 10% fetal bovine serum (Corning), 100 I.U. penicillin, and 100 µg/mL streptomycin (Gibco) at 37 °C and 5% CO2. Both cell lines were authenticated via STR profiling and confirmed to be Mycoplasma negative.
For mass spectrometric (MS) analysis ± KDAC inhibition, cells were cultured in 150 mm dishes to ~80% confluence and treated with 5 mM sodium butyrate (or equivalent volume of water) in triplicate for 0, 10, 20, 30, 60, 120 min. […] Histones were acid extracted after nuclei isolation as described ([Holt et al., 2021]). Isolated histones were resuspended in 85 µL 5% acetonitrile, 0.2% trifluoroacetic acid (TFA), and resolved by offline high-performance liquid chromatography (HPLC) as described ([Holt et al., 2021]). […] After chromatographic separation and fraction collection, histone H3.1 was selected, diluted in 100 mM ammonium acetate (pH = 4), and digested with Glu-C protease (Roche) at 10:1 protein:enzyme for 1 hr at room temperature prior to mass spectrometric analysis.
The digested samples were diluted to 2 µg/µL. Online HPLC was performed on a U3000 RSLC nano Pro-flow system using a C3 column (Zorbax 300 SB-C3, 5 µm; Agilent). Samples were maintained at 4 °C and 1 µL injected for each analysis using a microliter pickup. […] The column eluant was introduced into an Orbitrap Fusion Lumos mass spectrometer (Thermo Fisher) by nano-electrospray ionization. A static spray voltage of 1900 V and an ion transfer tube temperature of 320 °C were set for the source.
A Fusion Lumos mass spectrometer was used to generate MS data. The 9th charge state of histone H3 was targeted for analysis. MS1 analysis was acquired in the orbitrap with a normal mass range and a 60 k resolution setting in positive ion mode. An Automatic Gain Control (AGC) target of 5.0E5 with a 200 ms maximum injection time, three microscans, and a scan range of 585–640 m/z was used to identify desired ions for fragmentation. MS2 acquisition was performed in both orbitrap and ion trap modes. Both modes used electron transfer dissociation (ETD), a reaction time of 18ms, and an injection time of 200 ms. […]

## CCCC(=O)O [sodium butyrate]
  3ac including {K9ac, K14ac, K18ac}: 1.6743 Percentage
  4ac including {K9ac, K14ac, K18ac}: 16.6357 Percentage
  5ac including {K9ac, K14ac, K18ac}: 100 Percentage
Column 1 of 3
  3ac including {K9ac, K14ac, K18ac}: 1.334 Percentage
  4ac including {K9ac, K14ac, K18ac}: 17.3973 Percentage
  5ac including {K9ac, K14ac, K18ac}: 100 Percentage
Column 2 of 3
  3ac including {K9ac, K14ac, K18ac}: 1.24 Percentage
  4ac including {K9ac, K14ac, K18ac}: 17.858 Percentage
  5ac including {K9ac, K14ac, K18ac}: 100 Percentage
0ac
  H3K9me0: 48.8895 Percentage
  H3K9me1: 7.899 Percentage
  H3K9me2: 29.443 Percentage
  H3K9me3: 13.7682 Percentage
0ac, column 1 of 3
  H3K9me0: 54.4348 Percentage
  H3K9me1: 4.2113 Percentage
  H3K9me2: 27.4814 Percentage
  H3K9me3: 13.8725 Percentage
0ac, column 2 of 3
  H3K9me0: 51.9841 Percentage
  H3K9me1: 5.137 Percentage
  H3K9me2: 26.9782 Percentage
  H3K9me3: 15.9004 Percentage
1ac
  H3K9me0: 27.5434 Percentage
  H3K9me1: 15.9623 Percentage
  H3K9me2: 38.0917 Percentage
  H3K9me3: 17.0037 Percentage
1ac, column 1 of 3
  H3K9me0: 28.711 Percentage
  H3K9me1: 14.4169 Percentage
  H3K9me2: 39.3301 Percentage
  H3K9me3: 15.8799 Percentage
1ac, column 2 of 3
  H3K9me0: 28.8744 Percentage
  H3K9me1: 14.4284 Percentage
  H3K9me2: 38.0038 Percentage
  H3K9me3: 16.6818 Percentage
2ac
  H3K9me0: 27.9258 Percentage
  H3K9me1: 21.3235 Percentage
  H3K9me2: 37.139 Percentage
  H3K9me3: 9.818 Percentage
2ac, column 1 of 3
  H3K9me0: 28.9582 Percentage
  H3K9me1: 21.0866 Percentage
  H3K9me2: 35.8684 Percentage
  H3K9me3: 10.0575 Percentage
2ac, column 2 of 3
  H3K9me0: 26.6449 Percentage
  H3K9me1: 22.0491 Percentage
  H3K9me2: 35.8906 Percentage
  H3K9me3: 10.993 Percentage
3ac
  H3K9me0: 21.6496 Percentage
  H3K9me1: 12.8486 Percentage
  H3K9me2: 25.9132 Percentage
  H3K9me3: 9.297 Percentage
3ac, column 1 of 3
  H3K9me0: 21.2886 Percentage
  H3K9me1: 12.9304 Percentage
  H3K9me2: 26.508 Percentage
  H3K9me3: 10.2618 Percentage
3ac, column 2 of 3
  H3K9me0: 21.713 Percentage
  H3K9me1: 11.1466 Percentage
  H3K9me2: 27.8034 Percentage
  H3K9me3: 10.4504 Percentage
4ac
  H3K9me0: 4.833 Percentage
  H3K9me1: 7.36 Percentage
  H3K9me2: 8.881 Percentage
  H3K9me3: 1.604 Percentage
4ac, column 1 of 3
  H3K9me0: 5.043 Percentage
  H3K9me1: 6.813 Percentage
  H3K9me2: 10.053 Percentage
  H3K9me3: 3.009 Percentage
4ac, column 2 of 3
  H3K9me0: 4.13 Percentage
  H3K9me1: 7.856 Percentage
  H3K9me2: 9.753 Percentage
  H3K9me3: 2.246 Percentage
5ac
  H3K9me0: 0 Percentage
  H3K9me1: 0 Percentage
  H3K9me2: 0 Percentage
  H3K9me3: 0 Percentage
5ac, column 1 of 3
  H3K9me0: 0 Percentage
  H3K9me1: 0 Percentage
  H3K9me2: 0 Percentage
  H3K9me3: 0 Percentage
5ac, column 2 of 3
  H3K9me0: 0 Percentage
  H3K9me1: 0 Percentage
  H3K9me2: 0 Percentage
  H3K9me3: 0 Percentage
HEK-293, ± butyrate
  H3K9me3 on hyperacetylated H3 proteoforms, in words: H3K9me3 did not accumulate with hyperacetylated H3 proteoforms
  {K9ac, K14ac, K18ac} in 5ac proteoforms, in words: all penta-acetylated (5ac) H3 proteoforms consisted of acetylation at H3K9, K14, and K18 at minimum
